Assay results from patent US10485772B2, “Compositions for modulating cancer stem cells and uses therefor” (University of Canberra, priority 2014, dated 2019).

Experiments:
Assay type in all cases: cell-based, human
MCF-7 cells = assay: EMT assay by phase contrast microscopy in MCF-IM model; details: MCF-IM model; for EMT (morphology): bisindolylmaleimide 1 μM, 1 hr pre-treatment before PMA for 60 hrs
Protocol: EMT assays were performed in 24-well plates (Costar, Corning Inc., Corning, N.Y., USA). For this assay, usually MCF-7 cells were seeded at 4×10^4/well/500 μL media one day before the experiment unless otherwise specified. Cells were stimulated with various EMT stimuli prepared in warm media the following day and monitored for EMT changes under the microscope specified below. The percentage of EMT was generally calculated based on phenotype counting 100 cells per field under the microscope. All the potential EMT stimuli used herein are described in Table 6 and they were prepared and stored as per supplier specification.
(§1) Phase contrast microscopy was utilized for EMT and wound healing assays under 10× or 20× magnification of Olympus Fluorescence 1X71 microscope. Images were captured and analyzed as described above except that wound healing assay pictures were also analyzed by Image J software (Free software in Public domain developed by NIH).
The adherent human mammary adenocarcinoma MCF-7 and MDA-MB-231 cells were cultured in low glucose DMEM (Gibco) and both supplemented with 10% FCS, 2 mM L-glutamine and 0.1% PSN antibiotics. […] For Bisindolylmaleimide-I (Calbiochem) or PKC-θ peptide inhibitor (Calbiochem) studies, cells were pre-treated with 1 μM or 30 μM of inhibitor respectively for 1 h prior to stimulation in MCF-7 cells. In case of MDA-MB-231, cells were treated with 4 μM or 30 μM Bisindolylmaleimide-I or PKC-θ peptide inhibitor respectively.
(§2) phase contrast microscopy was performed where cells were viewed at ×4 magnification (wound healing assay) or ×10 magnification (EMT) using an Olympus fluorescence IX71 microscope (Olympus) and images were captured using DPController software (2002 Olympus Optical Co. LTD) and analyzed using Photoshop CS3 (Adobe Systems Inc.). Scans were taken with a 10 μm scale bar.

[1] = tested on: laminin-5, uPAR and CD44 transcripts in MCF-7 cells; assay: TaqMan real time PCR transcript analysis of EMT/CSC genes in MCF-IM model
Protocol: For most of the experiments, total RNA was extracted from 5×10^5 to 1×10^6 MCF-7 cells unless otherwise specified. Cells were first thawed in 1 mL of Trizol® Reagent (Invitrogen, Carlsbad, Calif.) for 5 minutes at room temperature to inactivate RNases, followed by trituration to dislodge the cell pellet. The dissociated cells suspended in Tizol (1 mL) were transferred into a 1.5 mL Eppendorf tube for 5 minutes for homogenization. RNA was then extracted by addition of 200 μL chloroform and mixing was done vigorously before centrifuging the samples at 8,000×g for 30 minutes at 4° C. The aqueous layer was then collected into a fresh 1.5 mL Eppendorf tube and an equal volume of isopropanolol was added to the aqueous layer and mixed gently. After 5 minutes at room temperature, samples were either snap frozen on dry ice and stored at −70° C. overnight or until the isolation procedure could be re-commenced. After thawing the samples quickly, the samples were again centrifuged at 8,000×g for 30 minutes at 4° C. to precipitate the RNA. To remove all traces of isopropanolol, next the RNA pellets were washed with 1 mL of ice cold 80% ethanol (Analytical UNIVAR, Seattle, Wash.) before centrifuging at 3,600×g for 10 minutes at 4° C. All ethanol then was removed and pellets were allowed to air dry for 5 minutes. RNA samples were then solubilized by re-suspending them in 50 μL of nuclease-free DEPC (Diethylpyrocarbonate treated) water (Ambion, VIC, Australia). Next, 2 μL of the sample was taken out to measure RNA quality and quantity on Nano-drop® Spectrophotometer ND 1000 (Nanodrop Technologies, Inc., Wilmington, Del., USA) using ND-1000 V3.30 software. All the RNA samples were found pure as they had A260/A280 ratio of 1.9-2.1 and this ratio provides an estimate of RNA purity with respect to contaminants such as proteins that absorb in the UV spectrum.
Superscript™® III kit (Invitrogen, Carlsbad, Calif.) was used for cDNA synthesis. Master mix-1 was prepared by adding 1 μL of 5 μM oligo (dT) and 1 μL of 100 mM dNTPs and mixed by flicking. Mastermix-2 was prepared by adding 2 μL of RT buffer, 2 μL of 3 mM mgCl2, 2 μL of DTT mix, 1 μL of RNAse out, 1 μL of superscript III and mixed by flicking. For 1 μg RNA, 2 μL of the master mix-1 was added to the samples, mixed and incubated at 65° C. for 5 minutes and then samples were placed on ice to stop the reaction. This step was followed by addition of 10 μL of the master mix-2 per sample and incubation of samples at 50° C. for 50 minutes. The reaction was then stopped by incubating samples at 85° C. for 5 minutes followed by placing the samples on the ice for 2 minutes. […] All the samples were either snap frozen on dry ice or used immediately for quantitative Real-Time PCR analysis. […]

MDA-MB 231 cells = assay: Phase contrast microscopy of EMT/MET in Basal/metastatic model; details: Bisindolylmaleimide 4 μM
Protocol: as §1
The adherent human mammary adenocarcinoma MCF-7 and MDA-MB-231 cells were cultured in low glucose DMEM (Gibco) and both supplemented with 10% FCS, 2 mM L-glutamine and 0.1% PSN antibiotics. Cells were stimulated with 0.65 ng/ml of phorbol 12-myristate 13-acetate (PMA) (Sigma-Aldrich) or 20 ng/ml of TGF-β (R&D systems) for the times indicated. For Bisindolylmaleimide-I (Calbiochem) or PKC-θ peptide inhibitor (Calbiochem) studies, cells were pre-treated with 1 μM or 30 μM of inhibitor respectively for 1 h prior to stimulation in MCF-7 cells. In case of MDA-MB-231, cells were treated with 4 μM or 30 μM Bisindolylmaleimide-I or PKC-θ peptide inhibitor respectively.
as §2

[2] = listed as Broad spectrum PKC pathway inhibitor

Row | SMILES | PMA-induced EMT-like morphological changes (MCF-7 cells; pre-incubation with Go6976) | transcription of key inducible EMT/CSC genes (laminin-5, uPAR, CD44) ([1]; Go6976 1 μM for 1 hour prior to PMA) | EMT (morphology) (MDA-MB 231 cells) | EMT (morphology) (MDA-MB 231 cells; [2]) | EMT (morphology) (MCF-7 cells) | EMT (morphology) (MCF-7 cells; [2]) | transcription of key inducible EMT/CSC genes (laminin-5, uPAR, CD44) ([1]; bisindolylmaleimide-I 100 nM for 1 hour prior to PMA) | transcription of key inducible EMT/CSC genes (laminin-5, uPAR, CD44) ([1]; bisindolylmaleimide-I 1 μM for 1 hour prior to PMA) | transcription of key inducible EMT/CSC genes (laminin-5, uPAR, CD44) ([1]; bisindolylmaleimide-I 1 μM for 1 hour prior to PMA, listed as Broad spectrum PKC pathway inhibitor)
1 | Cn1c2ccccc2c2c3c(c4c5ccccc5n(CCC#N)c4c21)CNC3=O [Go6976] | did not prevent PMA-induced EMT-like morphological changes or CSC formation | failed to inhibit transcription of key inducible EMT/CSC genes |  |  |  |  |  |  | 
2 | CN(C)CCCn1cc(C2=C(c3c[nH]c4ccccc34)C(=O)NC2=O)c2ccccc21 [bisindolylmaleimide-I] |  |  | inhibits EMT | inhibition of EMT and CSC formation | inhibits EMT | inhibition of EMT and CSC formation | cannot inhibit transcription of key inducible EMT/CSC genes | inhibits transcription of key inducible EMT/CSC genes | inhibition of EMT and CSC formation
